Reference: a melting point compilation (Tetko et al.; mined from patent text by program, amines drawn as free bases though some values may be those of a salt)

| melting point [°C] | Compound |
| --- | --- |
| 142 to 143 | COc1ccc2c(c1)C(=O)N(CCCN(C)CCN1C(=O)c3cc(OC)ccc3C(C)(C)C1=O)C(=O)C2(C)C |
| 158 to 160 | OC1CCCc2nc3ccccc3c(NCc3ccccc3C(F)(F)F)c21 (stereo not drawn) |
| 221 to 223 | Cc1cccc(OC2=NS(=O)(=O)N=C(Oc3cccc(C)c3)N2C)c1 |
| 168 to 171 | N#Cc1c(Cl)nc2ccc(S(=O)(=O)Cl)cc2c1Cl |
| 179 to 180 | CN(C(=O)CNc1cc(-c2ccccc2)nc(-c2ccc(C(F)(F)F)cc2)n1)C1CC1 |
| 195 to 196 | CC1(c2nn(-c3ccc(N)cc3Cl)c(=O)o2)CC1 |
| 118 to 121 | CC(NC=O)c1ccc(Nc2nccc(-c3cccnc3)n2)cc1 (stereo not drawn) |
| 210 | CCc1nnc(-c2ccc(N)cc2)n1-c1ccc(OC)cc1 |
| 179 to 180 | CC(=O)Nc1ccc(SCC(=O)NCC(=O)N(C)c2ccc(Cl)c(COc3cccc4ccc(C)nc34)c2Cl)cc1 |
| 137 to 138 | CCCCC[C@@H](CNC(=O)Nc1c(OC)ccc2c1CCCC2)c1cccc2c1OCO2 |
| 192 | Cn1c(=O)cc(-c2nc(-c3ccccc3)cs2)c2cc(C(O)c3ccc(Cl)cc3)ccc21 (stereo not drawn) |
| 233 to 235 | O=C(Nc1ccc(C(=O)N2C[C@@H]3CCCN3C(=O)c3ccccc32)cc1)c1ccccc1-c1ccccc1 |
| 147 to 148 | COCCOc1ccc(/C=C/C(=O)NS(=O)(=O)c2cccc(C)c2)c(Oc2ncc(C(F)(F)F)cc2Cl)c1 |
| 79 to 80 | Cc1cc(C(O)c2ccccc2)sc1C (stereo not drawn) |
| 260 to 261 | O=C(Cn1c(-c2ccc(Cl)cc2)nc2cccnc21)NC1CCCC1 |
| 112 to 116 | CC(C)C(N=C(NN)NN)C(=O)O (stereo not drawn) |
| 260 to 262 | CN1N=C(Br)C2N=C(Cl)N=C(O)C21 (stereo not drawn) |
| 160 | N=C(N)Nc1nc(CSCCC(=O)NS(N)(=O)=O)cs1 |
| 212 | FC(F)(F)CNc1ccc2c(c1)N1CCN=C1S2 |
| 144 | O=C1Cc2c(OCc3ccccc3)cc(OCc3ccccc3)cc2O[C@@H]1c1ccc(OCc2ccccc2)c(OCc2ccccc2)c1 |
| 144 to 145 | CC(=O)NCCn1ccc2c1-c1ccc(Cl)cc1CC2 |
| 206 to 212 | Cc1cccc2c1N(CC(=O)N1CC3CCC(CC3)C1)C(=O)C(NC(=O)c1cc3ccccc3[nH]1)N=C2C1CCCCC1 (racemic) |
| 174 | COC(=O)c1cc(C(=O)c2c(C)c(OC)c3c(OCc4ccccc4)cccn23)ccc1N |
| 111 to 112 | CCOCC(O)COc1ccc(NC(=O)CCS(C)(=O)=O)cc1 (stereo not drawn) |

| melting point [°C] | Compound |
| --- | --- |
| 206 to 208 | CCOC(=O)c1c(-c2ccncc2)[nH]c(-c2ccncc2)c1C |
| 75.5 to 76 | COc1ccc2c(c1)C(C)(CC#N)C(=O)N2C (stereo not drawn) |
| 42 to 44 | CCc1cc(Nc2ccccc2)cc(CC)c1N |
| 174 to 177 | CC1(C)OC(=O)C(Oc2ncnc3ccccc23)=C1c1ccc(S(C)(=O)=O)cc1 |
| 158 to 160 | COC(=O)n1nc(C(=O)NC2CN(C)CCN(Cc3ccccc3)C2)c2ccccc21 (stereo not drawn) |
| > 250 | c1ccc(N2CNCC23CCN(C2CCc4ccccc42)CC3)cc1 (racemic) |
| 225 to 228 | OCCCNc1nnc(NCCCO)c2cc3ccccc3cc12 |
| 71.5 to 73 | CCOC(=O)c1cc(OCc2ccccc2)ccc1O |
| 280 | Cn1cc(-c2cccc(C(=O)O)c2)c(=O)c(-n2cccn2)c1 |
| 73 to 75 | OC1Cc2ccc(C(F)(F)F)cc2Sc2ccc(F)cc21 (stereo not drawn) |
| 74 to 75 | O=C(C#Cc1ccncc1)c1ccccc1 |
| 106 to 108 | O=C(C1=C(Nc2ccccc2)CCC1)c1ccccc1Br |
| 144 to 146 | Cc1cc(-c2cc3cc(OCCNC[C@H](O)COc4ccccc4)ccc3o2)no1 |
| 177 to 178 | CC(C)C(NC(=O)OCc1cccnc1)C(=O)NC(Cc1ccccc1)C(O)C(Cc1ccccc1)NC(=O)C(NC(=O)OCc1cccnc1)C(C)C (stereo not drawn) |
| 103 to 105 | Cc1cc(F)ccc1-c1nc(OCCNC(=O)OC(C)(C)C)nc2c1ccc(=O)n2-c1c(F)cccc1F |
| 175 to 180 | Nc1ccc2[nH]c(C(=O)N3CCC(Cc4ccccc4)CC3)cc2c1 |
| 79 to 80 | Clc1ccc(-c2nc(-n3cccn3)oc2CCC2=NCCO2)cc1 |
| 115 | CCOc1ccc2c(c1)n(C1CCCCC1)c(=O)n2Cc1ccc(-n2cccc2)cc1OC |
| 74 to 76 | COC(=O)COc1ccc(OC2CCN(c3ccncc3)CC2)cc1 |
| 171 to 174 | COC(=O)OC(Cc1ccc(OCCc2nc(-c3ccccc3)oc2C)cc1)C(N)=O (stereo not drawn) |
| 133 to 135 | CNC(NCCSCc1[nH]cnc1C)=C(C#N)C#N |
| 98 to 99 | O=C(CCCO)NCC1c2ccccc2CCc2ccccc21 |
| 204 to 206 | Cn1c(-c2ccc3ccccc3c2)nnc1S(C)(=O)=O |
| 142 to 143 | O=C(NCCO)c1cccc(-c2ccc3c(n2)N(Cc2ccc(Cl)cc2Cl)CC3)c1 |

| melting point [°C] | Compound |
| --- | --- |
| 78 | CSCc1cc(C(C)=O)c(O)cc1OCCCCCCC#N |
| 123 to 124 | CCOC(=O)CN1CCN(C2=Nc3ccccc3Oc3ccc(Cl)cc32)CC1 |
| 127 to 128 | COC(=O)C(=C(C)C)N1CC(N2C(=O)c3ccccc3C2=O)C1=O (stereo not drawn) |
| 121 to 122 | OC(c1cc(-c2ccc(F)cc2)c(-c2ccc(F)cc2)[nH]1)C(F)(F)F (stereo not drawn) |
| 202 to 203 | CCOC(=O)c1cc2ccc3c(c2cc1OCC)OC(n1cccc1)=C(C#N)C3c1cccc([N+](=O)[O-])c1 (stereo not drawn) |
| 278 to 280 | CC1CCN(c2ccc(Nc3ncc4c(n3)SCC(=O)N4)cc2)CC1 |
| 162 to 165 | COc1ccc(C2(CC(=O)O)CNC(=O)C2)cc1OC (stereo not drawn) |
| 292 to 293 | O=C1Nc2ccc(C(F)(F)F)cc2C1c1ncnc2nn(C3CCCC3)cc12 (stereo not drawn) |
| 207 | CCOC(=O)c1c(S(C)=O)n(C2CC2)c2cc(F)c(F)cc2c1=O (stereo not drawn) |
| 67 to 68 | CC(C)c1nn(-c2ccc(C(F)(F)F)cn2)cc1CCCCO |
| 248 to 249 | O=c1ccc(S(=O)(=O)c2cc3ccccc3[nH]2)n[nH]1 |
| 150 to 152 | COC(=O)c1cccc2c1-c1ccc3c(c1C(c1ccccc1)O2)C(C)=CC(C)(C)N3 (stereo not drawn) |
| 135 to 138 | CON(C)C(=O)c1cc(-c2ccccc2)n[nH]1 |
| 88 to 90 | COC(=O)[C@@H]1OC(c2ccc(O)c(OC)c2)O[C@H]1C(=O)OC |
| > 300 | Cc1cc2c(c3ccc(=O)[nH]c13)O[C@@H](CN)[C@@H]2CO (racemic) |
| 141 to 143 | CCc1cc(C(=O)c2ccccc2Cl)c(-n2c(C)nnc2CNC(=O)Nc2ccccc2)s1 |
| 219 to 220 | CC(=O)c1cc(N=c2cc(C)n(C)c(N)n2)cc(C(C)=O)c1 |
| 150 to 151 | O=C(COc1ccc(C(=O)CN2CCN(c3ccncc3)CC2)cc1)NCc1ccccc1 |
| > 260 | Cc1cc2nc3c4cc(O)ccc4n(CCN(C)C)c3nc2cc1C |
| 88 to 90 | Cc1cnn(C(C)C(=O)N(C)C)c1-c1ccccc1 (stereo not drawn) |
| 213 to 215 | Oc1ccc(-c2cc3c(Oc4ccc(Cl)cc4)cncc3s2)cc1 |
| 212 to 213 | Cc1ccc2sc(S(N)(=O)=O)cc2c1 |
| 106 to 107 | CCOC(=O)c1cc2cccc(NS(=O)(=O)c3ccccc3OC)c2n1COC |
| 145 to 148 | Cn1c2c(c3cc(OCc4ccccc4)ccc31)CC(C(N)=O)C2 (stereo not drawn) |

| melting point [°C] | Compound |
| --- | --- |
| 317 to 318 | NC(=O)[C@H]1CCc2c(sc3nc(CN4C(=O)COC4=O)c(Cl)c(-c4ccc(O)cc4)c23)C1 |
| 50 to 60 | COc1ccc(C(O)c2cccc(OCc3ccccc3)c2)cc1 (stereo not drawn) |
| 130 to 132 | CCOC(=O)c1cc(=O)c2cc(C(C)(C)C)cc(C(C)(C)C)c2o1 |
| 171 to 172 | O=c1[nH]nnn1-c1ccc(OCc2ccc(F)cc2)cc1F |
| 26 to 28 | CNc1c(F)cccc1C(C)=O |
| 100 | CCOC(=O)c1sc(-c2ccc(Cl)cc2Cl)nc1C |
| 120 | COc1ccc(CCN(C)CCCCc2ccc(NC(=O)c3cccc4c(=O)c5ccccc5[nH]c34)cc2)cc1OC |
| 101 to 102 | COc1ncc(C(=O)N(C)Cc2cc(C(F)(F)F)cc(C(F)(F)F)c2)c(-c2ccccc2)n1 |
| 130 to 132 | Nc1cccc(-c2ccc(CCN3CCc4ccccc4C3)cc2)n1 |
| 130 to 131 | CC(=O)OCC(CCc1nc2nc(N)nc(SCCC(=O)c3ccccc3)c2[nH]1)COC(C)=O |
| > 250 | NC(=O)Cc1ccc(N/C=C2\C(=O)Nc3ccccc32)cc1 |
| 168 to 170 | CO/C=C(/C(=O)OC)c1ccccc1Oc1cc(O)ncn1 |
| 62 to 63 | COC(=O)C(C)(C)CCCOc1ccc(NC(=O)C(C)(C)CCCOc2cc(C)ccc2C)cc1 |
| 96 to 97 | CCOC(=O)CC[C@H](NC(=O)c1ccc2c(c1)CCN2)C(=O)OCC |
| 217 to 219 | CCOCn1cc(Cl)c(O)cc1=O |
| 129 to 130 | CC(=O)NC(C)(C)c1ccc(CN2CCN(c3ccccn3)CC2)cc1 |
| 35 to 38 | c1ccc(OCCSCc2ncc(-c3ccc(OCCN4CCCCCC4)cc3)o2)cc1 |
| 83 | CCCCCCCCCCc1cnc(-c2ccc3c(c2)C(=O)C(CCCCCCCC)C3)nc1 (stereo not drawn) |
| 261 to 264 | O=C(O)c1ccc(-c2ccc3cc(O)c(C45CC6CC(CC(C6)C4)C5)cc3c2)cc1O |
| 134 | Cc1ccc(S(=O)(=O)N2[C@@H](CCC(=N)NO)CC[C@H]2c2ccc(F)cc2)cc1 (racemic) |
| 254 | Cc1ccc(C(=O)C2=C(O)C(=O)N(c3ccc(C)nn3)C2c2ccc(C)cc2C)cc1 (stereo not drawn) |
| 65 to 66 | CCCCn1c(C)c(C)cc(NC(=O)OCc2ccccc2)c1=O |

| Compound | melting point [°C] |
| --- | --- |
| CC(C)(C)NC(=O)c1nn(-c2ccc(Br)cc2)c2c1[C@@H]1CC[C@H]2C1 | 148 to 149 |
| O=C1CSC2CN=C(c3ccccc3)c3cc(Cl)ccc3N12 (stereo not drawn) | 228 to 230 |
| O=C1CC(Br)(CC(Br)(Br)Br)O1 (stereo not drawn) | 71 to 73 |
| CN1C(=O)C(NC(=O)Nc2ccc([N+](=O)[O-])cc2)N=C(c2ccccc2)c2ccccc21 (stereo not drawn) | 292 to 293 |
